Patent US9724408B2, “Compositions and methods for activating stimulator of interferon gene-dependent signalling” (ADURO BIOTECH, INC., priority 2013, dated 2017)

How the values were obtained:
[1] = tested on: 4T1 mammary carcinoma cells; test: 4T1 mammary carcinoma flank tumor model, intratumoral CDN; assay type: in vivo, BALB/c mice
Description: Either CT26 colon carcinoma cells (1×10^5 cells in 100 μL PBS) or 4T1 mammary carcinoma cells (1×10^5 cells in 100 μL PBS) were implanted subcutaneously on the flanks of 6-8 week old female BALB/c mice (8 mice per group). Treatments began when tumors reached a volume of approximately 75 mm^3, which was approximately day 14 post tumor implantation. The compounds Rp, Rp dithio cyclic [A(2′,5′)pA(3′,5′)p] (ML RR-CDA) or Rp, Rp dithio cyclic [G(2′,5′)pG(3′,5′)p] (ML RR-CDG) compounds (25 μg in a total volume of 40 μL HBSS), or HBSS vehicle control, and Rp, Rp dithio cyclic [A(2′,5′)pA(3′,5′)p] (ML RR-CDA) (50 μg in a total volume of 40 μL HBSS) or HBSS vehicle control, were administered by subcutaneous injection into the center of the tumor using a 27 gauge needle. Injections were repeated every three days, for a total of three intratumoral injections.
To determine whether CDN derivative molecules induce effective and durable anti-tumor immunity in an alternate tumor model, 6-8 week old female BALB/c mice (8 mice per group) were implanted with 4T1 mammary carcinoma cells (1×10^5 cells in 100 μL PBS). […] On day 35 post tumor implantation, surviving mice and age-matched naïve control mice were implanted on the contralateral flank with either CT26 or 4T1 (both 1×10^5 cells in 100 μL PBS) tumor cells (4 mice per group), and monitored for tumor growth.

[2] = tested on: CT26; test: Re-challenge of surviving mice with CT26 tumor cells on the contralateral flank; assay type: in vivo, BALB/c mice
Description: To determine whether the synthetic derivative CDN molecules elicit durable and effective anti-tumor T-cell immunity, 6-8 week old female BALB/c mice (8 mice per group) were implanted with CT26 colon carcinoma cells (1×10^5 cells in 100 μL PBS). Mice were treated with Rp, Rp dithio cyclic [A(2′,5′)pA(3′,5′)p] (ML RR-CDA) compound ([…] in a total volume of 40 μL HBSS) or HBSS vehicle control, and tumor growth was monitored as per previous example. Mice were bled on day 18 post tumor implantation and PBMCs were isolated by Ficoll gradient (Miltenyi Biotech). 5×10^4 PBMCs were stimulated overnight in an IFNγ ELISpot assay with media alone (unstimulated), or with 1 μM of the endogenous H-2 L^d-restricted tumor rejection antigen AH1 peptide in the presence of 1×10^5 naïve splenocytes as feeder cells. IFN-γ ELISpot plates were developed and quantified using a CTL plate reader and ImmunoSpot software. On day 55 post tumor implantation, surviving mice and age-matched naïve control mice were implanted on the contralateral flank with either CT26 or 4T1 (both 1×10^5 cells in 100 μL PBS) tumor cells (4 mice per group), and monitored for tumor growth. […]

**Q.** What does the source list for `Nc1ncnc2c1ncn2[C@@H]1O[C@@H]2COP(O)(=S)O[C@@H]3C(O)[C@@H](COP(O)(=S)O[C@H]2[C@H]1O)O[C@H]3n1cnc2c(N)ncnc21` (stereo partly shown) [ML RR-CDA, dithio-[RP, RP]-cyclic-[A(2′,5′)pA(3′,5′)p]]?
**A.** inhibition of tumor growth of established 4T1 mammary carcinomas ([1]; 50 μg intratumoral, FIG. 22A): completely inhibited tumor growth of established 4T1 mammary carcinomas; inhibition of tumor growth of established 4T1 mammary tumors ([1]; intratumoral, every three days, three injections, 8 mice per group, FIG. 19C): completely inhibited tumor growth of all established 4T1 mammary tumors; protection against CT26 re-challenge, survivors of 4T1 tumors ([2]; re-challenge on day 35 post tumor implantation, FIG. 22B): complete protection; protection against CT26 re-challenge, survivors of CT26 tumors ([2]; re-challenge on day 55 post tumor implantation, FIG. 21C): complete protection against the same CT26 tumor type
